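Dose response: 5 concentrations. Exposure: 48 h. Format: 96-well plates. Endpoint: linear interpolation; highest concentration if not reached. At the GI50, growth is halved.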 The source made the active and inactive calls. Rule as the data show it: active = GI50 up to about 1.1 µM and inactive = higher.
Legend:
Assay in all cases: DTP human tumour cell line panel, 48 h
K562 = system: K562
HCT-116 = system: HCT-116
SK-MEL-2 = system: SK-MEL-2
DU-145 = system: DU-145
SF-539 = system: SF-539
TK-10 = system: TK-10
A498 = system: A498
SNB-19 = system: SNB-19
ACHN = system: ACHN
SF-295 = system: SF-295
UO-31 = system: UO-31
MOLT-4 = system: MOLT-4
MDA-N = system: MDA-N
MCF7 = system: MCF7
HOP-92 = system: HOP-92
RXF 393 = system: RXF 393
M14 = system: M14
Malme-3M = system: Malme-3M
NCI-H522 = system: NCI-H522

Measured: GI50

Cc1ccc(S(=O)(=O)Oc2cc(N)c3c(n2)CCC3)cc1
inactive: K562 67 µM | HCT-116 > 100 µM | SK-MEL-2 > 100 µM | DU-145 > 100 µM | SF-539 > 100 µM | TK-10 > 100 µM | A498 69.2 µM | SNB-19 > 100 µM | ACHN > 100 µM | SF-295 53.8 µM | UO-31 69.3 µM | MOLT-4 33.7 µM | MDA-N > 100 µM | MCF7 > 100 µM | HOP-92 52.6 µM | RXF 393 > 100 µM | M14 > 100 µM

O=c1[nH]c2ccc(CC(=S)N3CCOCC3)cc2s1
inactive: K562 > 100 µM | HCT-116 > 100 µM | SK-MEL-2 > 100 µM | DU-145 > 100 µM | Malme-3M > 100 µM | SF-539 > 100 µM | TK-10 > 100 µM | A498 > 100 µM | SNB-19 > 100 µM | ACHN > 100 µM | SF-295 > 100 µM | MOLT-4 > 100 µM | MDA-N > 100 µM | MCF7 > 100 µM | RXF 393 > 100 µM | M14 > 100 µM

CC[N+](C)(CC)CCC(O)(c1ccccc1)c1ccccc1
inactive: K562 > 100 µM | HCT-116 > 100 µM | NCI-H522 > 100 µM | SK-MEL-2 > 100 µM | DU-145 > 100 µM | Malme-3M > 100 µM | TK-10 > 100 µM | A498 > 100 µM | SNB-19 > 100 µM | ACHN > 100 µM | SF-295 > 100 µM | UO-31 > 100 µM | MOLT-4 > 100 µM | MDA-N > 100 µM | MCF7 > 100 µM | RXF 393 > 100 µM | M14 > 100 µM

CC(=O)C1=C(C)N2C(=NC3=C(CCc4ccccc43)C2c2ccc(F)cc2)S1 (stereo unspecified)
inactive: K562 31.3 µM | HCT-116 > 100 µM | SK-MEL-2 > 100 µM | DU-145 > 100 µM | SF-539 80.5 µM | A498 45.7 µM | SNB-19 > 100 µM | ACHN 77.6 µM | SF-295 > 100 µM | UO-31 52.7 µM | MOLT-4 2.59 µM | MDA-N 55.6 µM | MCF7 60.5 µM | HOP-92 63.1 µM | RXF 393 52.6 µM | M14 > 100 µM

COc1ccc2c(c1O)[C@@]13CCCC=C1[C@@H](C2)N(C)CC3
inactive: K562 21.3 µM | HCT-116 36.6 µM | NCI-H522 25.2 µM | SK-MEL-2 36.7 µM | DU-145 > 100 µM | Malme-3M 1.75 µM | TK-10 > 100 µM | SNB-19 > 100 µM | ACHN > 100 µM | SF-295 > 100 µM | UO-31 39 µM | MOLT-4 44.3 µM | MDA-N 61.5 µM | MCF7 81.5 µM | HOP-92 39.7 µM | RXF 393 > 100 µM | M14 79.6 µM

CCOc1nnnc2[nH]cnc12
inactive: HCT-116 > 100 µM | NCI-H522 > 100 µM | SK-MEL-2 > 100 µM | DU-145 > 100 µM | Malme-3M > 100 µM | SF-539 > 100 µM | TK-10 > 100 µM | A498 > 100 µM | SF-295 > 100 µM | UO-31 > 100 µM | MOLT-4 > 100 µM | MDA-N > 100 µM | MCF7 > 100 µM | RXF 393 > 100 µM | M14 > 100 µM

COc1ccc2c(c1C)C(=O)C(O)(CC=C(C)C)O2 (stereo unspecified)
inactive: K562 > 100 µM | HCT-116 > 100 µM | NCI-H522 > 100 µM | SK-MEL-2 > 100 µM | DU-145 > 100 µM | Malme-3M > 100 µM | SF-539 > 100 µM | TK-10 > 100 µM | A498 > 100 µM | SNB-19 > 100 µM | ACHN > 100 µM | SF-295 > 100 µM | UO-31 > 100 µM | MOLT-4 > 100 µM | MDA-N > 100 µM | MCF7 > 100 µM | M14 > 100 µM

C/C=C(/C)C(=O)O[C@H]1C[C@@H]2[C@@H](O)c3occ(C)c3C[C@]2(C)[C@@H](C)C1
inactive: K562 10.4 µM | HCT-116 15.2 µM | NCI-H522 14.6 µM | DU-145 14.8 µM | Malme-3M 15.8 µM | SF-539 17.5 µM | TK-10 17.6 µM | SNB-19 16.8 µM | ACHN 17.1 µM | SF-295 15.2 µM | MOLT-4 15.2 µM | MDA-N 18.7 µM | MCF7 20.9 µM | HOP-92 17.4 µM | RXF 393 14.4 µM | M14 15.6 µM

COc1ccc(/C=C2\NC(=S)N(CN3CCOCC3)C2=O)cc1
inactive: K562 > 100 µM | HCT-116 > 100 µM | SK-MEL-2 > 100 µM | DU-145 > 100 µM | Malme-3M > 100 µM | TK-10 > 100 µM | A498 26.1 µM | SNB-19 > 100 µM | ACHN > 100 µM | SF-295 > 100 µM | UO-31 > 100 µM | MOLT-4 > 100 µM | MDA-N > 100 µM | MCF7 > 100 µM | HOP-92 > 100 µM | M14 > 100 µM

Cc1ccc2c(c1)C(=O)c1ccc(C)nc1C2=O
inactive: K562 48.4 µM | HCT-116 19.1 µM | NCI-H522 25.9 µM | SK-MEL-2 69.2 µM | DU-145 49.4 µM | Malme-3M 8.71 µM | SF-539 23 µM | TK-10 > 100 µM | A498 > 100 µM | SNB-19 22.2 µM | ACHN 35.7 µM | SF-295 24.6 µM | UO-31 40.9 µM | MOLT-4 > 100 µM | MDA-N 16.6 µM | MCF7 27.4 µM | RXF 393 > 100 µM | M14 31.8 µM

Fc1cccc(F)c1C1SCc2nc3ccc(Cl)cc3n21 (stereo unspecified)
inactive: K562 51.1 µM | HCT-116 > 100 µM | NCI-H522 > 100 µM | SK-MEL-2 > 100 µM | DU-145 > 100 µM | Malme-3M > 100 µM | SF-539 > 100 µM | TK-10 > 100 µM | SNB-19 > 100 µM | ACHN > 100 µM | SF-295 > 100 µM | UO-31 > 100 µM | MOLT-4 > 100 µM | MDA-N > 100 µM | MCF7 > 83 µM | HOP-92 > 100 µM | RXF 393 > 100 µM | M14 > 100 µM

Cc1c(F)c(NC(=O)CN(C)C)c2c(=O)cc(-c3ccc(NC(=O)CN(C)C)c(F)c3)oc2c1F
inactive: K562 13.6 µM | HCT-116 12.9 µM | NCI-H522 17.5 µM | SK-MEL-2 19.2 µM | DU-145 13.6 µM | Malme-3M 26.3 µM | SF-539 17.3 µM | TK-10 7.57 µM | A498 1.35 µM | SNB-19 16 µM | ACHN 15.4 µM | SF-295 15.5 µM | UO-31 13.6 µM | MOLT-4 11.2 µM | MDA-N 16.4 µM | MCF7 13.4 µM | RXF 393 12.8 µM | M14 16.3 µM
